What was measured:
Assay in all cases: radiometric filter-binding kinase assay, Kinase HotSpot
Conditions in all cases: compound 0.5 µM; ATP 10 µM
[1] = molecular target: BRSK2 (human) (UniProt Q8IWQ3)
[2] = molecular target: CAMK1G (human) (UniProt Q96NX5)
[3] = molecular target: CDK6 CCND1 (human) (UniProt Q00534+P24385)
[4] = molecular target: CLK3 (human) (UniProt P49761)
[5] = molecular target: CSNK1D (human) (UniProt P48730)
[6] = molecular target: CSNK1E (human) (UniProt P49674)
[7] = molecular target: CSNK1G1 (human) (UniProt Q9HCP0)
[8] = molecular target: CSNK2A1 (human) (UniProt P68400)
[9] = molecular target: DDR2 (human) (UniProt Q16832)
[10] = molecular target: DSTYK (human) (UniProt Q6XUX3)
[11] = molecular target: DYRK2 (human) (UniProt Q92630)
[12] = molecular target: EPHA1 (human) (UniProt P21709)
[13] = molecular target: EPHB4 (human) (UniProt P54760)
[14] = molecular target: ERBB4 (human) (UniProt Q15303)
[15] = molecular target: FGFR3 (human) (UniProt P22607)
[16] = molecular target: FGFR4 (human) (UniProt P22455)
[17] = molecular target: HIPK1 (human) (UniProt Q86Z02)
HIPK1 (human), sequence (Q86Z02 whole entry, looked up): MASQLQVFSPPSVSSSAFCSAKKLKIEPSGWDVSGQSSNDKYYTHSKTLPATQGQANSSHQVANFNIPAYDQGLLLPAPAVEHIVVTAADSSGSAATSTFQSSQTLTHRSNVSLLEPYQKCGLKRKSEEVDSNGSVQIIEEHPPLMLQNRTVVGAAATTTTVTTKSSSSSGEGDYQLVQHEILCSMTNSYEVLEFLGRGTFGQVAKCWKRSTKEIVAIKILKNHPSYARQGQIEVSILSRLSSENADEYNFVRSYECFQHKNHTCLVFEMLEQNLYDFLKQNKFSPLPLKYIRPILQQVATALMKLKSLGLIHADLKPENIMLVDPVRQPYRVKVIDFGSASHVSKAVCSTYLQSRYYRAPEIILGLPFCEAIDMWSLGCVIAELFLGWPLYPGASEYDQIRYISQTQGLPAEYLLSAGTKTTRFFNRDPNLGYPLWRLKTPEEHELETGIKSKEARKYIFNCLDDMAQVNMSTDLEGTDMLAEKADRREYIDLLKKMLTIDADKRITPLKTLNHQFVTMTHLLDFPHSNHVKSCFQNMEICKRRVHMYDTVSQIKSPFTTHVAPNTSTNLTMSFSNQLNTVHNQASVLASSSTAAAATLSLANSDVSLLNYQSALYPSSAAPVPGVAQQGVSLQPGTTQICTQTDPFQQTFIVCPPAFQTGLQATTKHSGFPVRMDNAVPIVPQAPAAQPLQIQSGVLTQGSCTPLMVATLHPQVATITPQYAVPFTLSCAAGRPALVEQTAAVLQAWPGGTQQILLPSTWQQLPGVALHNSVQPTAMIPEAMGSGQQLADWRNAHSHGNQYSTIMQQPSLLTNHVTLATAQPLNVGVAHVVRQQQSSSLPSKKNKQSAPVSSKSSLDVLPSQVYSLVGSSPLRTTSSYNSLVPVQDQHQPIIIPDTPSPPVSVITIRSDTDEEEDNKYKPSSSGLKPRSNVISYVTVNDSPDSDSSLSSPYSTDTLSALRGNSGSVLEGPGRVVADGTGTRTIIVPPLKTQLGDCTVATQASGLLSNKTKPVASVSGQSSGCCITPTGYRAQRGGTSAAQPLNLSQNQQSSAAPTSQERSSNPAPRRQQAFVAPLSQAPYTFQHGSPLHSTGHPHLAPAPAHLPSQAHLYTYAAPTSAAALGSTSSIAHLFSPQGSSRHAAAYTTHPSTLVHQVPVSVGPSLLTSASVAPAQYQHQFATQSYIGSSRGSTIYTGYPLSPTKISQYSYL

[18] = molecular target: HIPK3 (human) (UniProt Q9H422)
[19] = molecular target: JAK2 JH1 JH2 (human) (UniProt O60674)
[20] = molecular target: KIT (human) (UniProt P10721)
[21] = molecular target: MAP3K8 (human) (UniProt P41279)
[22] = molecular target: MAPK1 (human) (UniProt P28482)
[23] = molecular target: MAPKAPK2 (human) (UniProt P49137)
[24] = molecular target: MERTK (human) (UniProt Q12866)
[25] = molecular target: MLTK (human) (UniProt Q9NYL2)
[26] = molecular target: MST4 (human) (UniProt Q9P289)
MST4 (human), sequence (Q9P289 whole entry, looked up): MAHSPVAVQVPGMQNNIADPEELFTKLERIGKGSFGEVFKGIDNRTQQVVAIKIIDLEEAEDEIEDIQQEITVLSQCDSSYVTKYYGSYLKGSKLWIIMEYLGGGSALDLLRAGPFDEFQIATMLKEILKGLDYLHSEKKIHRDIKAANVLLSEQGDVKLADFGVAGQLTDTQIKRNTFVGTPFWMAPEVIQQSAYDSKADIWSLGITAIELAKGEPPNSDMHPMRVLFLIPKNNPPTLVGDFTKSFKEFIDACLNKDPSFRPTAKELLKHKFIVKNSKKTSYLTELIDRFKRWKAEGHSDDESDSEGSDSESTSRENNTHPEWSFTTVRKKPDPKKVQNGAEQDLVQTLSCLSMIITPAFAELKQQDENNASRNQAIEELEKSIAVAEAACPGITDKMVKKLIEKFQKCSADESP

[27] = molecular target: NEK11 (human) (UniProt Q8NG66)
[28] = molecular target: NEK3 (human) (UniProt P51956)
[29] = molecular target: NLK (human) (UniProt Q9UBE8)
[30] = molecular target: NTRK3 (human) (UniProt Q16288)
NTRK3 (human), sequence (Q16288 whole entry, looked up): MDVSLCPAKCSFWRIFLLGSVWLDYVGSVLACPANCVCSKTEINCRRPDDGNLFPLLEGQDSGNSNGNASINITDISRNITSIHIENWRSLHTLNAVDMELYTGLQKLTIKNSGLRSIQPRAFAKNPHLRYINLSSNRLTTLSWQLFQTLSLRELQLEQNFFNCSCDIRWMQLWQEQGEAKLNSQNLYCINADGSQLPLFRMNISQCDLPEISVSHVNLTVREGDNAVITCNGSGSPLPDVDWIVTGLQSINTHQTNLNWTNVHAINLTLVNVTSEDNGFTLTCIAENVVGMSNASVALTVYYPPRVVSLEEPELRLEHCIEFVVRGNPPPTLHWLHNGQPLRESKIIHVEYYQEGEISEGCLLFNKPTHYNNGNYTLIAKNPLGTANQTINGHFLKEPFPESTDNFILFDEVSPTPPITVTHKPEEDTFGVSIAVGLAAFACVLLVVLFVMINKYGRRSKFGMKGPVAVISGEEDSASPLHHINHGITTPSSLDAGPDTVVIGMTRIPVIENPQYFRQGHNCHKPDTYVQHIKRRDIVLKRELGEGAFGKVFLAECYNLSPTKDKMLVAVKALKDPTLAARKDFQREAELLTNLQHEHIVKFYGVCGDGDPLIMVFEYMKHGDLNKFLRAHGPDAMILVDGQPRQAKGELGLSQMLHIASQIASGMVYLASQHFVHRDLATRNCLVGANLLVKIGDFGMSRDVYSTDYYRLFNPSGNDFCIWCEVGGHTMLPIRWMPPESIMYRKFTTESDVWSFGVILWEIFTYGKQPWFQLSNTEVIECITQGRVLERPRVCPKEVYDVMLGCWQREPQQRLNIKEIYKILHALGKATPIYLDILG

[31] = molecular target: PAK3 (human) (UniProt O75914)
[32] = molecular target: PAK6 (human) (UniProt Q9NQU5)
[33] = molecular target: PHKG2 (human) (UniProt P15735)
[34] = molecular target: PLK1 (human) (UniProt P53350)
[35] = molecular target: PNCK (human) (UniProt Q6P2M8)
[36] = molecular target: PRKCD (human) (UniProt Q05655)
[37] = molecular target: PRKCE (human) (UniProt Q02156)
[38] = molecular target: ROS1 (human) (UniProt P08922)
ROS1 (human), sequence (P08922 whole entry, looked up): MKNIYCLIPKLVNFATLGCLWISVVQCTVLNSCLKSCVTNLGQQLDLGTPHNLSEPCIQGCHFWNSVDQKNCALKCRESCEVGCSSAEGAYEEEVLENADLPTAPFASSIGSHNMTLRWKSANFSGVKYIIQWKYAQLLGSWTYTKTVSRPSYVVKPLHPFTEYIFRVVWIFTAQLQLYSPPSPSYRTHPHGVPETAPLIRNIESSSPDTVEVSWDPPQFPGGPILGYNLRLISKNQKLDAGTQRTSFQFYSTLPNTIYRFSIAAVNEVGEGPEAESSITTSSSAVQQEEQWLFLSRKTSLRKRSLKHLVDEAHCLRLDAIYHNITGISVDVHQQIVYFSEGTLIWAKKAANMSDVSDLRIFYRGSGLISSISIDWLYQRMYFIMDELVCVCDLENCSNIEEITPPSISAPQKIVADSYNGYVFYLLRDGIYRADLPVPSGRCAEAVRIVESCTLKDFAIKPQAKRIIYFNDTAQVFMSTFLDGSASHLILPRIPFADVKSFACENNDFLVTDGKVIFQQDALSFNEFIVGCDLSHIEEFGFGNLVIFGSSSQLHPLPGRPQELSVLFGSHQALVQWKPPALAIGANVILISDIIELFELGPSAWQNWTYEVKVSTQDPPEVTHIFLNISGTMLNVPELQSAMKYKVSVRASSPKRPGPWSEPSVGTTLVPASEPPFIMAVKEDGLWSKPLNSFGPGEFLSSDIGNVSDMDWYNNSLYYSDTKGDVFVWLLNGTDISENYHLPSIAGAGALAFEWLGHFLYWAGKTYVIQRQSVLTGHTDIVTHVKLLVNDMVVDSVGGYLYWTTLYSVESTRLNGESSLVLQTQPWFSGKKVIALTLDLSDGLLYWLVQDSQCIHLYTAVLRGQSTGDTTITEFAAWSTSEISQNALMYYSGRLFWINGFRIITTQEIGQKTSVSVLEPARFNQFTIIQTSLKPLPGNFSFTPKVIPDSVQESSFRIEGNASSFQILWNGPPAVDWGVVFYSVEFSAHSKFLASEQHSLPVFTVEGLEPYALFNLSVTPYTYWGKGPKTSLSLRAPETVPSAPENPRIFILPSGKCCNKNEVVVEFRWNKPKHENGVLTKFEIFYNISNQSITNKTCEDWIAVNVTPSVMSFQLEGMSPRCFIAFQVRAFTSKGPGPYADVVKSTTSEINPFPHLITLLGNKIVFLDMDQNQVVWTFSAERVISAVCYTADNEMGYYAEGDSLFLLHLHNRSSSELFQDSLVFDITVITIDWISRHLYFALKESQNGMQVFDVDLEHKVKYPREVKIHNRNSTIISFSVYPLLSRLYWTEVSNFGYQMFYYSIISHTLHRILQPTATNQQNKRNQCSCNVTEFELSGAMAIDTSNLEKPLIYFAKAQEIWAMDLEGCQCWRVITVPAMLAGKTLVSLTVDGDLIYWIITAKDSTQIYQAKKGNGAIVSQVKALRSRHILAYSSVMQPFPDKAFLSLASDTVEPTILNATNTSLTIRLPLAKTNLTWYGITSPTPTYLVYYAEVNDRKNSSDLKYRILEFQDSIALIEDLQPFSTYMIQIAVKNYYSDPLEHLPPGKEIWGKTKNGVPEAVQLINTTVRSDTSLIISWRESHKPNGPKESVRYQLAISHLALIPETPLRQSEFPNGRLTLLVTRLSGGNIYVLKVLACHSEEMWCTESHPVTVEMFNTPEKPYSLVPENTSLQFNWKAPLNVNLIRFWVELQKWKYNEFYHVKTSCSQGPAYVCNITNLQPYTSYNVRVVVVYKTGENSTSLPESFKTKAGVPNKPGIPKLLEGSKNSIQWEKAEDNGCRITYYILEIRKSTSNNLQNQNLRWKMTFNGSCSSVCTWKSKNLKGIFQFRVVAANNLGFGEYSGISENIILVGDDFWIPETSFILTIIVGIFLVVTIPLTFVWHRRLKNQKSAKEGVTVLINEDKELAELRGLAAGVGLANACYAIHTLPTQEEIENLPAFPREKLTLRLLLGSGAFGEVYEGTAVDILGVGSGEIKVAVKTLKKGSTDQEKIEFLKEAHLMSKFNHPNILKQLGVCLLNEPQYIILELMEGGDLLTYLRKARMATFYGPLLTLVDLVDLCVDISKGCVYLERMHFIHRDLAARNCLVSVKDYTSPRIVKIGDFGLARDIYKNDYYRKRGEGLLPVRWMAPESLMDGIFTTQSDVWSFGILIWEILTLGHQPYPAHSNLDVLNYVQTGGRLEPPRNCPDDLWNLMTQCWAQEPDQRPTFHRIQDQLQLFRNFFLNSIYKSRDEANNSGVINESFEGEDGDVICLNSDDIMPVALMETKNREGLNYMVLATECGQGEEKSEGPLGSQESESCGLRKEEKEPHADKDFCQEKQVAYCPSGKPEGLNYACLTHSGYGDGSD

[39] = molecular target: SYK (human) (UniProt P43405)
[40] = molecular target: TAOK2 (human) (UniProt Q9UL54)
[41] = molecular target: YES1 (human) (UniProt P07947)
[42] = molecular target: STK11 (human) (UniProt Q15831)

N#CCCc1ccc2c(c1)-c1[nH]c3ccc([N+](=O)[O-])cc3c1CC(=O)N2 gave a residual activity [1] of 42%, a residual activity [2] of 103% and a residual activity [3] of 6.79%. It also gave a residual activity [4] of 108%, a residual activity [5] of 97.4% and a residual activity [6] of 91.4%. It also gave a residual activity [7] of 81.6%, a residual activity [8] of 91.2% and a residual activity [9] of 105%. It also gave a residual activity [10] of 67.1%, a residual activity [11] of 46.8% and a residual activity [12] of 91.7%. For the same compound, the residual activity [13] was 82.2%, the residual activity [14] was 91.8% and the residual activity [15] was 90.3%. For the same compound, the residual activity [16] was 89.1%, the residual activity [17] was 97.9% and the residual activity [18] was 104%. The residual activity [19] was 93%, the residual activity [20] was 76.6% and the residual activity [21] was 87.5%. The residual activity [22] was 119%, the residual activity [23] was 83.4% and the residual activity [24] was 77.5%. For the same compound, the residual activity [25] was 88.6%, the residual activity [26] was 65.1% and the residual activity [27] was 101%. The residual activity [28] was 104%, the residual activity [29] was 89.7% and the residual activity [30] was 61.2%. It also gave a residual activity [31] of 97.1%, a residual activity [32] of 104% and a residual activity [33] of 99.1%. For the same compound, the residual activity [34] was 101%, the residual activity [35] was 107% and the residual activity [36] was 74.9%. The residual activity [37] was 95.4%, the residual activity [38] was 71% and the residual activity [39] was 58%. For the same compound, the residual activity [40] was 86.4% and the residual activity [41] was 35.8%.
N/C(=N\N=C/c1ccc(-c2cccc([N+](=O)[O-])c2)o1)N[N+](=O)[O-] was tested, and the residual activity [1] was 106%, the residual activity [2] was 104% and the residual activity [3] was 100%. For the same compound, the residual activity [4] was 97.7%, the residual activity [5] was 99.8% and the residual activity [6] was 91%. The residual activity [7] was 96.4%, the residual activity [8] was 91% and the residual activity [9] was 101%. The residual activity [10] was 95.4%, the residual activity [11] was 93.1% and the residual activity [12] was 88.9%. It also gave a residual activity [13] of 91.6%, a residual activity [14] of 103% and a residual activity [15] of 99.6%. The residual activity [16] was 106%, the residual activity [17] was 81.1% and the residual activity [19] was 98.8%. The residual activity [20] was 96.4%, the residual activity [21] was 98.8% and the residual activity [22] was 99.7%. It also gave a residual activity [23] of 96.3%, a residual activity [24] of 92.3% and a residual activity [25] of 98%. It also gave a residual activity [26] of 99.5%, a residual activity [27] of 110% and a residual activity [28] of 101%. It also gave a residual activity [29] of 103%, a residual activity [30] of 104% and a residual activity [31] of 95.1%. The residual activity [32] was 99%, the residual activity [33] was 100% and the residual activity [34] was 98.6%. It also gave a residual activity [35] of 100%, a residual activity [36] of 94.2% and a residual activity [37] of 90.5%. It also gave a residual activity [38] of 97.5%, a residual activity [42] of 98.7% and a residual activity [39] of 91.8%. It also gave a residual activity [40] of 95.3% and a residual activity [41] of 95.6%.
Work on COc1cc2c(Nc3ccc(Br)cc3F)ncnc2cc1OCC1CCN(C)CC1 yielded a residual activity [1] of 103%, a residual activity [2] of 101% and a residual activity [3] of 98.7%. The residual activity [4] was 100%, the residual activity [5] was 94.4% and the residual activity [7] was 100%. The residual activity [8] was 112%, the residual activity [9] was 68% and the residual activity [10] was 96%. The residual activity [11] was 97.2%, the residual activity [12] was 31.7% and the residual activity [13] was 13%. The residual activity [14] was 45.6%, the residual activity [16] was 90% and the residual activity [17] was 96.7%. It also gave a residual activity [18] of 99.5%, a residual activity [19] of 102% and a residual activity [20] of 71.4%. It also gave a residual activity [21] of 97.3%, a residual activity [22] of 99.1% and a residual activity [23] of 99.5%. For the same compound, the residual activity [24] was 47.9%, the residual activity [26] was 102% and the residual activity [27] was 103%. The residual activity [28] was 103%, the residual activity [29] was 96.2% and the residual activity [30] was 72.2%. The residual activity [31] was 103%, the residual activity [32] was 105% and the residual activity [33] was 99.1%. The residual activity [34] was 98.5%, the residual activity [35] was 99.5% and the residual activity [36] was 103%. It also gave a residual activity [37] of 100%, a residual activity [38] of 76.5% and a residual activity [42] of 105%. It also gave a residual activity [39] of 101%, a residual activity [40] of 104% and a residual activity [41] of 11.3%.

Reference: the kinase profiling compilation of Christmann-Franck et al. (2016)
